Test results reported in patent publication US5183821A, “Method for treating leukemias using N-(2-dimethylaminoethyl)-3-amino-1,8-naphthalimide for treating leukemias and solid tumors” (priority 1991, dated 1993).
Entries after “also recorded” stand apart in the source; their conditions may differ.

Legend:
[1] = tested on: leukemia P388; assay: NCI studies against leukemia P388 (Appendix 1, MDA and T/C); format: in vivo, murine
Text: On the other hand, murine transplantable leukemias are a good predictor of anti-leukemia activity in human beings (Kenis "Dose schedules and mode of administration of chemotherapeutic agents in man". Recent Results Cancer Res. 21, 54-61 (1969). Only those tests which use the survival times as an activity parameter are valid as predictors of antileukemia activity in human beings (for instance, leukemia p388 y L-1210), whilst "in vitro" tests (HeLa cells and other) are inappropriate (Llombart-Rodriguez, 1983). NCI data generated in the last years confirm the value of above assertions to compounds of general formula [drawing 1] as described in U.S. Pat. No. 4,204,063.
Experimental results from NCI studies against leukemia P388 are shown in an appendix (Appendix 1). In order to simplify the presentation of results we have extracted from these the minor active dose (MDA) against leukemia P388--for each compound. MDA is defined as the minor dose of the drug that reaches the minimal activity criteria of the NCI. For leukemia P388 this criteria on the basis of survival time is a minimal increase in survival of treated animals over a control resulting in a T/C≥120. In the following table the MDA for 14 examples are presented. In cases where none of the tested doses reached the MDA, the MDA is indicated as "NONE". The column "cytotoxic activity" has been extracted from U.S. Pat. No. 4,204,063. Data are presented in order of the highest to lowest cytotoxic activity.

[2] = tested on: L-1210 Lymphoid Leukemia; assay: NCI screen, L-1210 Lymphoid Leukemia, intraperitoneal (summary); format: in vivo, Mouse; conditions: for dosage range over which activity was observed: i.p. L1210, ILS≥25%; for Table II evaluation: full wrapped cell: Activity substantially greater than the minimal
Text: (§1) The activity of the compound has been evaluated by experiments carried out under the auspices of the Division of Cancer Treatment, National Cancer Institute, employing techniques considered to be reliable indicators of chemotherapeutic utility in the treatment of forms of cancer in human patients. The details of the methodology employed in the reported experiments may be determined with reference to established NCI screening methods.
In the experiments conducted by the NCI, evaluation of activity is made on the basis of appropriate parameters, such as median survival time (MST) or change in average tumor diameter (CATD)in ocular micrometer units (OMU).

[3] = tested on: CD8F1 mammary tumor; assay: NCI screen, CD8F1 mammary tumor, subcutaneous (summary); format: in vivo, Mouse; conditions: for Antitumor activity in words: CD8F1 mammary
Text: as §1, with “methods. In the experiments conducted by the NCI, evaluation of activity is made on the basis of appropriate parameters, such as median survival time (MST) or change in average tumor diameter (CATD)in ocular micrometer units (OMU).” for “methods.”

[4] = tested on: Colon 38; assay: Experiment 13: Colon 38 s.c., saline with Tween-80, male; format: in vivo, Mouse B6 D2 F1 (BDF1)
Text: Host: Mouse B6 D2 F1 (BDF1)
Inoculum Site: Subcutaneous
(§2) Vehicle: Saline with Tween-80
Treatment schedule (relative to tumor inoculation day): Days 2 and 9
Day of evaluation (relative to tumor inoculation day): 20
Parameter: Median tumor weight (MTW) estimated from tumor diameter
NCI minimal activity criteria: Percent T/C≤42
(§3) Percent T/C: Ratio of test (T) evaluation to control (C) evaluation expressed as a percentage

[5] = tested on: B16 Melanocarcinoma; assay: Experiment 17: B16 i.p., saline with Tween-80, female; format: in vivo, Mouse B6C3F1
Text: (§4) Tumor: B16 Melanocarcinoma
(§5) Inoculum Site: Intraperitoneal
(§6) Tissue: Homogenate (or brei), tumor
as §2
(§7) Treatment schedule (relative to tumor inoculation day): daily on days 1-9
(§8) Day of evaluation (relative to tumor inoculation day): 60
(§9) Parameter: Median survival time (MST) in days
(§10) NCI minimal activity criteria: Percent T/C≥125
as §3

[6] = tested on: B16 Melanocarcinoma; assay: Experiment 18: B16 i.p., saline with Tween-80, male; format: in vivo, Mouse B6 C3 F1
Text: as §4, §5, §6, §2, §7, §8, §9, §10, §3

[7] = Five daily dose (X5) mouse range-finding and lethality study; format: in vivo, CD2 F1 mice; conditions: mouse, in vivo, iv
Description: (§11) A preclinical toxicology study of benzisoquinolinedione (NSC-308847) was done at Springborn Institute for Bioresearch, Inc. using CD2 F1 mice, Fischer 344 rats and beagle dogs. Animals were injected intravenously on a single dose (X1) or five daily dose (X5) regimen. Bulk drug was titrated with 0.5N HCl to form a salt solution of benzisoquinolinedione at a pH of 5.0-6.5. Sterile 0.9% saline was used for diluting the dosing solutions and was used for the vehicle control animals.
(§12) The deaths generally were preceded by rough hair coat, decreased activity, hunched posture and dehydration. […] Males and females were similarily affected on both schedules.
(§13) Defined Doses for the Five Daily Dose Mouse Lethality

[8] = tested on: CD2 F1 mice; assay: as above; format: in vivo
Description: as §11, §12, §13

[9] = X5, listed as benzisoquinolinedione

Structure (SMILES): CN(C)CCN1C(=O)c2cccc3cc(N)cc(c23)C1=O [Example 9, 1H-Benz[de]isoquinoline-1,3(2H)-dione, 5-amino-2-[2-(dimethylamino)ethyl]]
- response vs control in vivo at 2 mg/kg ([1]; Mus musculus, P388, read-out: T/C %, dose 2,00 mg/kg): 137%
- response vs control in vivo at 4 mg/kg ([1]; Mus musculus, P388, read-out: T/C %, dose 4,00 mg/kg): 142%
- response vs control in vivo at 32 mg/kg ([1]; Mus musculus, P388, read-out: T/C %, dose 32,00 mg/kg): < 100%
- response vs control in vivo at 65 mg/kg ([1]; Mus musculus, P388, read-out: T/C %, dose 65,00 mg/kg): < 100%
- minimal effective dose ([1]; Mus musculus, P388, minor active dose reaching T/C≥120): 2 mg/kg
- STATUS (activity against leukemia P388) ([1]; at the dose of the same line of the appendix table): T/C > 120 active
- dosage range over which activity was observed ([2]; listed as BIDA): two-fold dosing range
- dosage range over which activity was observed ([2]; listed as the compound): two-fold dosage range
- mean optimal increased life span (ILS) ([2]; ip, 16 mg/kg): 96%
- optimal increased life spans (ILS) ([2]; ip, 16 mg/kg): 75-117%
- Table II evaluation ([2]; mean survival time, 12 tests): Activity
- Table II evaluation ([2]; median survival time, 21 tests): Activity
- activity by other routes ([2]; p.o. or I.V.): is retained when given p.o. or I.V.
- ILS ([2]; solution in 0.1 N HCl diluted with saline): 117%
- Antitumor activity in words ([3]; listed as BIDA): not active
- Antitumor activity in words ([3]; listed as the compound): not observed to be effective
- Table II evaluation ([3]; change in median tumor weight, 15 tests, full wrapped cell: Activity not confirmed): Activity not
- Median tumor weight (MTW) ([4]; 16.00 mg/kg i.p.): 2474
- Percent T/C ([4]; 16.00 mg/kg i.p.): 102%
- Median tumor weight (MTW) ([4]; 32.00 mg/kg i.p.): 1146
- Percent T/C ([4]; 32.00 mg/kg i.p.): 47%
- Median tumor weight (MTW) ([4]; 64.00 mg/kg i.p.): 700
- Percent T/C ([4]; 64.00 mg/kg i.p.): 29%
- Median tumor weight (MTW) ([4]; 128.00 mg/kg i.p.): Deaths before evaluation
- Median survival time (MST) ([5]; 1.00 mg/kg i.p.): 18.8 days
- Percent T/C ([5]; 1.00 mg/kg i.p.): 102%
- Median survival time (MST) ([5]; 2.00 mg/kg i.p.): 17.0 days
- Percent T/C ([5]; 2.00 mg/kg i.p.): 102%
- Median survival time (MST) ([5]; 4.00 mg/kg i.p.): 20.0 days
- Percent T/C ([5]; 4.00 mg/kg i.p.): 120%
- Median survival time (MST) ([5]; 8.00 mg/kg i.p.): 19.4 days
- Percent T/C ([5]; 8.00 mg/kg i.p.): 116%
- Median survival time (MST) ([5]; 16.00 mg/kg i.p.): 22.9 days
- Percent T/C ([5]; 16.00 mg/kg i.p.): 137%
- Median survival time (MST) ([5]; 32.00 mg/kg i.p.): 7.0 days
- Median survival time (MST) ([6]; 4.00 mg/kg i.p.): 22.0 days
- Percent T/C ([6]; 4.00 mg/kg i.p.): 113%
- Median survival time (MST) ([6]; 8.00 mg/kg i.p.): 23.2 days
- Percent T/C ([6]; 8.00 mg/kg i.p.): 120%
- Median survival time (MST) ([6]; 16.00 mg/kg i.p.): 27.0 days
- Percent T/C ([6]; 16.00 mg/kg i.p.): 139%
- Median survival time (MST) ([6]; 32.00 mg/kg i.p.): 6.3 days
- LD50 ([7]; combined sexes): 28.4 mg/kg
- LD50 ([7]; male): 28.8 mg/kg
- body weight, mice ([8]; X5): Dose-related weight loss was mild to severe initially
- time of mortality, mice [8, 9]: between days 1 and 10; also recorded: between days 6 and 10
- toxic signs, mice [8, 9]: labored breathing, exophthalmus, hyperextension of limbs, loss of locomotor ability, struggling, rough hair coat, huched posture, dehydration, increased irritability, decreased activity, swollen and necrotic tails, squinted eyes, prostration and moribundity; also recorded: ataxia and swollen faces with closed eyes and ocular discharge; also recorded: tail lesions which persisted to termination on day 33
- LD10 ([8]; combined sexes): 24.9 mg/kg/day
- LD10, second dose column ([8]; combined sexes): 74.7
- LD90 ([8]; combined sexes): 32.5 mg/kg/day
- LD90, second dose column ([8]; combined sexes): 97.5
- Slope (lethality) ([8]; combined sexes): 22.3
- LD10 ([8]; male): 24.3 mg/kg/day
- LD10, second dose column ([8]; male): 72.9
- LD90 ([8]; male): 34.2 mg/kg/day
- LD90, second dose column ([8]; male): 102.6
- Slope (lethality) ([8]; male): 17.2
